Earlier results, collected in PMC5156321 (Natural product communications, 2014).
Read-outs that look alike come from different tables or passages of the source. One block for each compound: values may come before it.

Experiments:
[1] = tested on: matrix metalloproteinase-3 (MMP-3); conditions: for IC50: read-out: MMP-3 IC50
caspase-1 = conditions: for Caspase-1 IC100: tested at 100 μg/mL and 10 μg/mL; for caspase-1 % inhibition: test concentration 100 μg,mL; for IC50: read-out: Caspase-1 IC50
[2] = tested on: IL-1β production in induced THP-1 cells; conditions: for inhibition of cytokine production in induced inflammasome assay: at the nm level, Figure 11; for IC50: read-out: IL-1β production (IC50), LPS and multi-walled carbon nanotubes-induced THP-1 cells
leukemia RPMI-8226 = conditions: NCI-DTP 60
leukemia SR = conditions: NCI-DTP 60
[3] = tested on: non-small cell lung cancer NCI-H522; conditions: NCI-DTP 60
[4] = tested on: non-small cell lung cancer NCI-H460; conditions: NCI-DTP 60
leukemia CCRFCEM = conditions: NCI-DTP 60
leukemia HL-60 = conditions: NCI-DTP 60
all leukemia cell lines = conditions: NCI-DTP 60
HeLaS3 [5] = conditions: read-out: IC50 (μM) Alamar Blue Viability HeLaS3; tested at MSKCC
UMUC3 [6] = conditions: read-out: IC50 (μM) Alamar Blue Viability UMUC3; tested at MSKCC
HeLaS3 [7] = conditions: read-out: IC50 (μM) Nuclei Count Proliferation HeLaS3; tested at MSKCC
UMUC3 [8] = conditions: read-out: IC50 (μM) Nuclei Count Proliferation UMUC3; tested at MSKCC
Y79 = conditions: read-out: IC50 (μM) Nuclei Count Proliferation Y79; tested at MSKCC
H3255 = conditions: read-out: IC50 (μM) Nuclei Count Proliferation H3255; tested at MSKCC
[9] = test concentrations 100 μg/mL and 10 μg/mL

Compound: COC(=O)[C@]12C(=O)[C@H](C)O[C@@H]3OC(=O)[C@](C)(C[C@H]4[C@]5(CO5)C5=CC(=O)OC(C)(C)C5=CC[C@@]41C)[C@@H]32 [B (18), berkeleyacetal B]
- MMP-3 inhibition, concentration range [1]: mM range
- caspase-1 inhibition, concentration range (caspase-1): mM range

Compound: CC(=O)N[C@H](C(=O)O[C@H]1CCC(C)(C)[C@@H]2CC=C3C(=O)OC[C@]3(O)[C@@]12C)C(C)C [B (32), Berkedrimane B]
- caspase-1 IC50 (caspase-1): 50 µg/mL
- inhibition of cytokine production in induced inflammasome assay [2]: completely inhibited

Compound: C/C=C/C1=CC2=CC(=O)[C@@H](C)[C@H](O)[C@H]2CO1 [Berkazaphilone A (25), Berkazaphilone A]
- Caspase-1 IC100 (caspase-1): Caspase-1: 100 μg/mL

Compound: C/C=C/C1=CC2=CC(=O)[C@](C)(OC(=O)c3c(C)cc(O)cc3O)[C@H](O)[C@H]2CO1 [Berkazaphilone B (26), berkazaphilone B]
- Caspase-1 IC100 (caspase-1): Caspase-1: 10 μg/mL
- leukemia RPMI-8226 log10 GI50 (leukemia RPMI-8226): leukemia RPMI-8226: log10 GI50 (−5.67)
- concentration completely inhibitory to IL-1β production in THP-1 cells [2]: 2.0 µg/mL

Compound: C/C=C/C1=CC2=CC(=O)[C@](C)(O)[C@H](OC(=O)c3c(C)cc(O)cc3O)[C@H]2CO1 [Berkazaphilone C (27), berkazaphilone C]
- Caspase-1 IC100 (caspase-1): Caspase-1: 10 μg/mL
- leukemia SR log10 GI50 (leukemia SR): leukemia SR: log10 GI50 (−6.42)
- concentration completely inhibitory to IL-1β production in THP-1 cells [2]: 20 µg/mL
- inhibition of cytokine production in induced inflammasome assay [2]: completely inhibited

Compound: CC(C)C[C@H]1C[C@H]([C@@H](O)CC(=O)Cc2ccccc2)C(=O)N1 [Berkeleyamide A (21), Berkeleyamide A]
- NCI-H522 log10 GI100 [3]: log10 GI100: 10 μM;

Compound: C=C1[C@@]2(C)C[C@H]3[C@]4(C)CCC(=O)OC(C)(C)[C@@H]4CC[C@]3(C)[C@]1(C(=O)OC)C(=O)[C@@](C)(O)C2=O [Preaustinoid A1(11), Preaustinoid A1]
- caspase-1 % inhibition (caspase-1): 77%
- IC50 [2]: 34.3 µM

Compound: C[C@@H]1O[C@@H]2OC(=O)[C@]3(C)C[C@@H]4[C@](C)(C(=O)C=C5C(=CC(=O)OC5(C)C)[C@@]45CO5)[C@H](C1=O)[C@H]23 [berkeleyacetal C (19), berkeleyacetal C]
- MMP-3 inhibition, concentration range [1]: micromolar range
- caspase-1 inhibition, concentration range (caspase-1): micromolar range
- growth inhibition of NCI H460 [4]: inhibited the growth
- growth inhibition of all leukemia cell lines (all leukemia cell lines): inhibited the growth

Compound: C/C=C(\C)C(=O)O[C@H]1C=CC(=O)O[C@H]1/C=C/[C@H](O)[C@H](C)O [compound 34, Phomopsolide B]
- IC50 (UMUC3 [8]): 6.1 µM

Compound: CCCCCCCCCC(=O)[C@@]12O[C@@]13C1=COC(C[C@H](C)O)=CC1=CC(=O)[C@]3(C)OC2=O [compound 45, berkchaetoazaphilone B]
- caspase-1 inhibition (caspase-1): strongest caspase-1 inhibitor

Compound: Berkebisabolane A [Berkebisabolane A (4)]
- IC50 [1]: 0.28 µM
- IC50 (caspase-1): 23 µM

Compound: Berkebisabolane B [Berkebisabolane B (5)]
- IC50 [1]: 0.315 µM
- IC50 (caspase-1): 23 µM

Compound: Berkedrimane A [Berkedrimane A (31)]
- caspase-1 IC50 (caspase-1): 60 µg/mL
- inhibition of cytokine production in induced inflammasome assay [2]: completely inhibited

Second part, led by results:

- IC50 [1]: 22 µM
- caspase-1 % inhibition (caspase-1): 89%
- IC50 [2]: 4.4 µM
Compound: C=C1[C@@]2(C)C[C@H]3C(C)=C4CC(=O)OC(C)(C)C4=CC[C@]3(C)[C@]1(C(=O)OC)C(=O)[C@@](C)(O)C2=O [Berkeleydione (8), berkeleydione]
- NCI-H460 log10 GI50 [4]: NCI-H460: log10 GI50 −6.40.
- activity towards NCI-H460 [4]: selective activity

- caspase-1 % inhibition (caspase-1): 68%
- IC50 [2]: 2.7 µM
Compound: C=C1[C@@]2(C)C[C@H]3[C@]4(C)CC[C@@H](O)C(C)(C)[C@H]4CC[C@]3(C)[C@]1(C(=O)OC)C(=O)[C@@](C)(O)C2=O [Berkeleyone A (12), Berkeleyone A]

- caspase-1 % inhibition (caspase-1): 100%
- IC50 [2]: 3.7 µM
Compound: C=C1[C@@]2(C)C[C@@H]3[C@](C)(CC=C4C(C)(C)OC(=O)CC[C@]43C)[C@]1(C(=O)OC)C(=O)[C@@](C)(O)C2=O [Berkeleyone B (13), Berkeleyone B]

- caspase-1 % inhibition (caspase-1): 0%
- IC50 [2]: 37.8 µM
Compound: C=C(C)C1=CC[C@@]2(C)[C@@H](C[C@]3(C)C(=C)[C@@]2(C(=O)OC)C(=O)[C@@](C)(O)C3=O)[C@]1(C)CCC(=O)O [Berkeleyone C (14), Berkeleyone C]

- IC50 [1]: 180 µM
Compound: C=C1[C@@]2(C)C[C@H]3[C@@]4(C)C(=CC[C@]3(C)[C@]1(C(=O)OC)C(=O)[C@@](C)(O)C2=O)C(C)(C)C(=O)C[C@H]4O [Berkeleytrione (9), berkeleytrione]

- IC50 [1]: 1.87 µM
- IC50 (caspase-1): 98 µM
Compound: CCCCC[C@@H]1Cc2cc(O)c(C(=O)O)c3c2[C@H](C[C@]2(OC[C@H](CC(=O)C(C)(CC)C(=O)OC)[C@H]2C)O3)O1 (stereo partly drawn) [Berkelic acid (1), berkelic acid]
- activity in the NCI-DTP60 against OVCAR-3 (OVCAR-3): active
- GI50 (OVCAR-3; read-out: GI50 NCI-DTP: OVCAR-3, NCI-DTP 60): 0.091 µM

- Caspase-1 IC100 (caspase-1): Caspase-1: 100 μg/mL
Compound: COc1cc(OC)c2c(c1)C(=O)O[C@H]2c1coc(C)cc1=O [Penisimplicissimum (30), penisimplicissin]
- leukemia CCRFCEM log10 GI50 (leukemia CCRFCEM): leukemia CCRFCEM: log10 GI50 (−6.70)
- leukemia HL-60 log10 GI50 (leukemia HL-60): leukemia HL-60: log10 GI50 (−5.83)

- caspase-1 inhibition (caspase-1): inhibited caspase-1 activity
- caspase-1 % inhibition (caspase-1): 97%
- IC50 [2]: 15.5 µM
Compound: C=C1[C@@]2(C)C[C@H]3[C@]4(C)CCC(=O)C(C)(C)[C@H]4CC[C@]3(C)[C@]1(C(=O)OC)C(=O)[C@@](C)(O)C2=O [Preaustinoid A (10), preaustinoid A]

- caspase-1 inhibition (caspase-1; [9]): not inhibitory
Compound: C/C=C/c1cc(=O)c([C@@H]2OC(=O)c3cc(OC)cc(OC)c32)co1 [Vermistatin (28), vermistatin]

- MMP-3 inhibition, concentration range [1]: mM range
- caspase-1 inhibition, concentration range (caspase-1): mM range
Compound: COC(=O)[C@]12C(=O)[C@H](C)O[C@@H]3OC(=O)[C@](C)(C[C@H]4C(C)=C5CC(=O)OC(C)(C)C5=CC[C@@]41C)[C@@H]32 [berkeleyacetals A (17), berkeleyacetal A]

- IC50 [1]: 100 µM
- IC50 (HeLaS3 [5]): 6.3 µM
- IC50 (HeLaS3 [7]): 5 µM
Compound: C/C=C(\C)C(=O)O[C@H]1C=CC(=O)O[C@H]1/C=C\C(=O)C(C)O (stereo partly drawn) [compound 33, Phomopsolide A]
- IC50 (UMUC3 [6]): 6.5 µM
- IC50 (UMUC3 [8]): 4.8 µM

- IC50 (HeLaS3 [5]): 3.6 µM
- IC50 (HeLaS3 [7]): 2.7 µM
- IC50 (H3255): 2.6 µM
Compound: C/C=C(\C)C(=O)O[C@H]1C=CC(=O)O[C@H]1/C=C/C(=O)[C@H](C)O [compound 35, Phomopsolide C]
- IC50 (UMUC3 [6]): 2.2 µM
- IC50 (Y79): 1.4 µM
- IC50 (UMUC3 [8]): 1.4 µM

- IC50 (HeLaS3 [7]): 7.3 µM
Compound: C/C=C(\C)C(=O)O[C@H]1C=CC(=O)O[C@H]1CCC(=O)[C@H](C)O [compound 36, Phomopsolide E]
- IC50 (UMUC3 [8]): 6.6 µM

- caspase-1 inhibition (caspase-1; [9]): not inhibitory
Compound: CCCc1cc(=O)c([C@@H]2OC(=O)c3cc(OC)cc(OC)c32)co1 [dihydrovermistatin (29), dihydrovermistatin]

- IC50 [1]: 0.34 µM
- IC50 (caspase-1): 23 µM
Compound: Berkebisabolane C [Berkebisabolane C (6)]

- IC50 [1]: > 100 µM
Compound: phompyrone [compound 38]
